What was measured:
Puccinia recondita = assay: In vivo screen, Puccinia recondita on wheat; set-up: species or system Wheat cv. Tonic; conditions: 400 ppm sprayed to run off, inoculated 24 hours later, wheat seedlings, incubated 4 days, percent control vs acetone-water control plants
Protocol: Wheat cv. Tonic is used as the host plant. […] The tray is 60 cm x 30 cm.
Percent control is then recorded.

Host Plants = assay: Phytotoxicity to host plants in the in vivo screen; conditions: 400 ppm sprayed to run off, host plants of the in vivo screen
Protocol: For each compound 3 replicate plants per pathogen at the 1 leaf stage are sprayed to run off. The plants are allowed to dry at room temperature for 24 hours prior to inoculation.
Untreated control plants and plants sprayed with 10 percent acetone-water or water alone (as required) are included for each pathogen.
Barley cv. Golden Promise is used as the host plant. Seeds are sown 8 per 3 in. (7.5 cm) pot and allowed to germinate and the plants are treated when they are approximately 2 weeks old. Spores are blown onto the test plants from the stock plants, which are then incubated at 20°C, relative humidity 70 percent for 7 days. After a week symptoms are recorded. The percent infection is scored from 3 replicate plants and expressed as a percent of the infection on the acetone-water control plants. The percent control is then recorded.
Wheat cv. Tonic is used as the host plant. Seeds are sown 1 cm deep in 4 rows per plastic tray. The tray is 60 cm x 30 cm. Seedlings grown to the 1-2 leaf stage are then inoculated. Into 100 mL of distilled water is placed 0.05 g of uredospores with a melting agent. This solution is sprayed onto the seedlings leaving a fine coverage on the leaves. The plants are then incubated with 100 percent relative humidity at 15-20°C for 4 days.

Erysiphe graminis Hordei = assay: In vivo screen, Erysiphe graminis Hordei on barley; set-up: species or system Barley cv. Golden Promise; conditions: 400 ppm sprayed to run off, inoculated 24 hours later, barley at 1 leaf stage, scored after 7 days, percent control vs acetone-water control plants
Protocol: Barley cv. Golden Promise is used as the host plant. Seeds are sown 8 per 3 in. […] After a week symptoms are recorded. […] The percent control is then recorded.

SMILES	Percent Efficacy, Puccinia recondita (Puccinia recondita)	Percent Phytotoxicity to Host Plants (Host Plants)	Percent Efficacy, Erysiphe graminis (Erysiphe graminis Hordei)
CC(=O)O.C[C@H]1[C@@H](c2ccc(C(C)(C)C)cc2)CCN1C1=NCCCN1 (relative stereo) [Example 1, Cis N-(tetrahydropyrimidin-2-yl)-2-methyl-3-(4-t-butylphenyl)pyrrolidinium acetate]	0%	0%	100%
CC(=O)O.C[C@H]1[C@H](c2ccc(C(C)(C)C)cc2)CCN1C1=NCCCN1 (relative stereo) [Example 2, trans N-(tetrahydropyrimidin-2-yl)-2-methyl-3-(4-t-butylphenyl)pyrrolidine acetate]	0%	0%	83%
C[C@H]1[C@@H](c2ccc(C(C)(C)C)cc2)CCN1C1=NCCCN1.Cl (relative stereo) [Example 3, Cis N-(tetrahydropyrimidin-2-yl)-2-methyl-3--(4-t-butylphenyl)pyrrolidinium chloride]	100%		14%
C[C@H]1[C@H](c2ccc(C(C)(C)C)cc2)CCN1C1=NCCCN1.Cl (relative stereo) [Example 4, Trans N-(tetrahydropyrimidin-2-yl)-2-methyl,3-(4-t-butylphenyl)pyrrolidinium chloride]	66%		87%
CC1CC(C)NC(N2CC[C@H](c3ccc(C(C)(C)C)cc3)[C@@H]2C)=N1.Cl (relative stereo) [Example 5, Cis N-(4,6-dimethyltetrahydropyrimidin-2-yl)-2-methyl-3-(4-t-butylphenyl)pyrrolidinium chloride]	100%	0%	52%
CC1CC(C)NC(N2CC[C@@H](c3ccc(C(C)(C)C)cc3)[C@@H]2C)=N1.Cl (relative stereo) [Example 6, Trans N-(4,6-dimethyltetrahydropyrimidin-2-yl)-2-methyl-3-(4-t-butylphenyl)pyrrolidinium chloride]	0%	0%	100%
CCCCCCCC[C@H]1CCN(C2=NCCCN2)[C@H]1C.Cl (relative stereo) [Example 7, Cis N-(tetrahydropyrimidin-2-yl)-2-methyl-3-octyl pyrrolidinium chloride]	0%		79%
